Laboratory results reported in patent publication US8470889B2 (TRT Pharma Inc., priority 2008, dated 2013).
Read-outs that look alike come from different tables or passages of the source. Each block holds one compound with its values, some of them ahead of it.

What was measured:
H-1975 cells = experiment: Growth inhibition, H-1975 lung cancer cells; type: cell-based; conditions: for IC50: Homo sapiens, NCI-H1975, read-out: Cytotoxicity, IC50 (μM) H-1975
Description: (§1) All samples were in triplicate.

MDA-MB-231 cells = experiment: Growth inhibition, MDA-MB-231 breast cancer cells; type: cell-based; conditions: for IC50: Homo sapiens, MDA-MB-231
Description: as §1

22Rv1 cells [1] = experiment: MTT cell growth inhibition, 22Rv1; conditions: MTT
Description: (§2) MDA PCa 2b was seeded at the same density in medium BRFF-HPC1 (Athena Enzyme Systems, Baltimore, Md., USA) supplemented with 20% FBS. After overnight incubation, the medium was changed to a fresh medium containing different concentrations of test compounds diluted from stock DMSO solution. The final concentration of DMSO is 0.5%. After 72 h of incubation with test compounds, 20 μL of 3-(4,5-dimethyl thiazol-2-yl)-2,5-diphenyltetrazolium bromide (MTT) solution (5 mg/mL in PBS) were added to each well and incubated further for 2 h. Next, the supernatant was aspirated and the MTT formazan formed by metabolically viable cells was dissolved in 100 μL of isopropanol. The plates were mixed for 30 min, and the absorbance was measured at 600 nm on a plate reader (FLUOstar OPTIMA, BMG LabTech). All samples were in triplicate. The IC50 values were determined from dose-response curves by nonlinear regression using PRISM v5.00 (GraphPad Software Inc, La Jolla, Calif., USA).
(§3) The in vitro cytotoxicity of 1-20 were evaluated by MTT assays in a panel of prostate cancer cell lines, including LNCaP, MDA PCa 2b, 22Rv1, C4-2B and PC-3.

PC-3 cells [2] = experiment: MTT cell growth inhibition, PC-3
Description: as §2, §3

C4-2B cells [3] = experiment: MTT cell growth inhibition, C4-2B;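 note: cells treated with a dilution series for 72 h, then MTT added and absorbance read at 600 nm, IC50 fitted from dose-response curves by nonlinear regression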
LNCaP cells [4] = experiment: MTT cell growth inhibition, LNCaP;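 note: MTT formazan absorbance at 600 nm read after 72 h of compound exposure, IC50 fitted by nonlinear regression of dose-response curves, samples run in triplicate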
Description: as §2, §3

MCF-7 cells = experiment: Growth inhibition, MCF-7 breast cancer cells; type: cell-based; conditions: for IC50: Homo sapiens, MCF7, read-out: Cytotoxicity, IC50 (μM) MCF-7
Description: as §1

MDA PCa 2b cells [5] = experiment: MTT cell growth inhibition, MDA PCa 2b; conditions: MTT;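 note: MDA PCa 2b prostate cancer cells in BRFF-HPC1 with 20% FBS, exposed to compounds for 72 h, viable-cell MTT formazan read as absorbance at 600 nm, 0.5% DMSO vehicle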
Description: as §2, §3

LNCaP cells [6] = tested on: LNCaP cells;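 note: MTT formazan absorbance at 600 nm read after 72 h of compound exposure, IC50 fitted by nonlinear regression of dose-response curves, samples run in triplicate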
Description: as §2, §3

C4-2B cells [7] = tested on: C4-2B cells;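 note: cells treated with a dilution series for 72 h, then MTT added and absorbance read at 600 nm, IC50 fitted from dose-response curves by nonlinear regression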
MDA PCa 2b cells [8] = tested on: MDA PCa 2b cells;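 note: MDA PCa 2b prostate cancer cells in BRFF-HPC1 with 20% FBS, exposed to compounds for 72 h, viable-cell MTT formazan read as absorbance at 600 nm, 0.5% DMSO vehicle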
Description: as §2, §3

22Rv1 cells [9] = tested on: 22Rv1 cells
Description: as §2, §3

PC-3 cells [10] = tested on: PC-3 cells
Description: as §2, §3

[11] = Table 10, read-out: Cytotoxicity, IC50 (μM) MDA-M B231
[12] = read-out: Cellular IC50 (μM) PCa 2b, Table 2, 72 h
[13] = read-out: Cellular IC50 (μM) PC-3, Table 2, 72 h, max tested 50 μM (β-ionone 150 μM)
[14] = read-out: Cellular IC50 (μM) LNCaP, Table 2, 72 h
[15] = read-out: Cellular IC50 (μM) 22Rv1, Table 2, 72 h
[16] = read-out: Cellular IC50 (μM) C4-2B, Table 2, 72 h
[17] = read-out: Cellular IC50 (μM) 22Rv1, Table 8
[18] = read-out: Cellular IC50 (μM) PCa2b, Table 8
[19] = read-out: Cellular IC50 (μM) PC3, Table 8
[20] = read-out: Cellular IC50 (μM) C4-2B, Table 8
[21] = read-out: Cellular IC50 (μM) LNCaP, Table 8
[22] = Table 11, read-out: Cytotoxicity, IC50 (μM) MDA-MB231

SMILES: CCn1c2ccccc2c2cc(/C=C/C(O)=C/C(=O)/C=C/C3=C(C)CCCC3(C)C)ccc21 [Compound 9]
effect in H-1975 lung cancer cell line (H-1975 cells): effective
IC50 (H-1975 cells; Table 10): 20.9 µM
effect in MDA-MB-231 breast cancer cell line (MDA-MB-231 cells): effective
IC50 (MDA-MB-231 cells; [11]): 11.7 µM
IC50 (22Rv1 cells [1]; read-out: IC50 (μM) 22Rv1, Table 1, 72 h): 4.1 µM
IC50 (μM) PC-3 (PC-3 cells [2]; Table 1, 72 h, maximum tested concentration 50 μM): Inactive^c
IC50 (C4-2B cells [3]; read-out: IC50 (μM) C4-2B, Table 1, 72 h): 7.4 µM
IC50 (LNCaP cells [4]; read-out: IC50 (μM) LNCaP, Table 1, 72 h): 9.9 µM
effect in MCF-7 breast cancer cell line (MCF-7 cells): effective
IC50 (MCF-7 cells; Table 10): 9.3 µM

SMILES: CC(O)(CS(=O)(=O)c1ccc(F)cc1)C(=O)Nc1ccc(C#N)c(C(F)(F)F)c1 (centres unmarked) [Bic, bicalutamide, reference compound]
IC50 (22Rv1 cells [1]; read-out: Cytotoxicity in prostate cancer cell lines IC50 (μM), 22Rv1, Part D table, 72 hours): > 50 µM
IC50 (MDA PCa 2b cells [5]; read-out: Cytotoxicity in prostate cancer cell lines IC50 (μM), PCa-2b, Part D table, 72 hours): > 50 µM
Cytotoxicity in prostate cancer cell lines IC50 (μM), PC-3 (PC-3 cells [2]; Part D table, 72 hours, I.A. = Inactive): I.A.
IC50 (C4-2B cells [3]; read-out: Cytotoxicity in prostate cancer cell lines IC50 (μM), C4-2B, Part D table, 72 hours, I.A. = Inactive): > 25 µM
IC50 (LNCaP cells [4]; read-out: Cytotoxicity in prostate cancer cell lines IC50 (μM), LNCaP, Part D table, 72 hours, I.A. = Inactive): 12.7 µM

SMILES: CCOc1ccc(C=CC(=O)C(=Cc2ccc(OCC)c(OCC)c2)C(=O)C=CC2=C(C)CCCC2(C)C)cc1OCC [Compound 13]
IC50 (MDA PCa 2b cells [5]; [12]): 6.8 µM
IC50 (PC-3 cells [2]; [13]): 14.1 µM
IC50 (LNCaP cells [4]; [14]): 14.9 µM

SMILES: COc1cc(C=CC(=O)C(=Cc2cc(OC)c(O)c(OC)c2)C(=O)C=CC2=C(C)CCCC2(C)C)cc(OC)c1O [Compound 15]
IC50 (22Rv1 cells [1]; [15]): 17.6 µM
IC50 (MDA PCa 2b cells [5]; [12]): 15.3 µM
IC50 (PC-3 cells [2]; [13]): 12.5 µM
IC50 (C4-2B cells [3]; [16]): 8.5 µM
IC50 (LNCaP cells [4]; [14]): 8.7 µM

SMILES: CC1=C(/C=C/C(=O)/C=C/c2cccc(C(F)(F)F)c2)C(C)(C)CCC1O (centres unmarked) [Compound B45]
IC50 (22Rv1 cells [1]; [17]): 1.7 µM
IC50 (MDA PCa 2b cells [5]; [18]): 2.6 µM
IC50 (PC-3 cells [2]; [19]): 3.5 µM
IC50 (C4-2B cells [3]; [20]): 1.4 µM
IC50 (LNCaP cells [4]; [21]): 0.74 µM

SMILES: CC1=C(C=CC(=O)C(=Cc2ccc(O)cc2)C(=O)C=Cc2ccc(O)cc2)C(C)(C)CCC1 [Compound 14]
IC50 (22Rv1 cells [1]; [15]): 4.7 µM
IC50 (MDA PCa 2b cells [5]; [12]): 4.7 µM
IC50 (PC-3 cells [2]; [13]): 6.7 µM
IC50 (C4-2B cells [3]; [16]): 4 µM
IC50 (LNCaP cells [4]; [14]): 4.5 µM

SMILES: COc1cc(/C=C/C(=O)/C=C/C2=C(C)C(O)CCC2(C)C)ccc1O (centres unmarked) [Compound B68]
IC50 (22Rv1 cells [1]; [17]): 22.6 µM
IC50 (MDA PCa 2b cells [5]; [18]): > 25 µM
IC50 (PC-3 cells [2]; [19]): 32.9 µM
IC50 (C4-2B cells [3]; [20]): 20.3 µM
IC50 (LNCaP cells [4]; [21]): 19.6 µM

SMILES: CC1=C(/C=C/C(=O)/C=C/c2ccccc2)C(C)(C)CCC1O (centres unmarked) [Compound B44]
IC50 (22Rv1 cells [1]; [17]): 8 µM
IC50 (MDA PCa 2b cells [5]; [18]): 12.6 µM
IC50 (PC-3 cells [2]; [19]): 15.5 µM
IC50 (C4-2B cells [3]; [20]): 1.8 µM
IC50 (LNCaP cells [4]; [21]): 5.8 µM

SMILES: CCn1c2ccccc2c2cc(/C=C(\C(=O)/C=C/C3=C(C)CCCC3(C)C)C(=O)/C=C/c3ccc(O)c(OC)c3)ccc21 [Compound 19]
IC50 (22Rv1 cells [1]; [15]): 2.4 µM
IC50 (MDA PCa 2b cells [5]; [12]): 8.1 µM
IC50 (PC-3 cells [2]; [13]): 7 µM
IC50 (C4-2B cells [3]; [16]): 2.3 µM
IC50 (LNCaP cells [4]; [14]): 2.3 µM

SMILES: CC1=CCCC(C)(C)C1/C=C/C(=O)/C=C/c1cc(C(F)(F)F)ccc1F (racemic) [Compound B20]
IC50 (LNCaP cells [6]): 1.7 µM
IC50 (C4-2B cells [7]): 4.7 µM
IC50 (MDA PCa 2b cells [8]): 3 µM
IC50 (22Rv1 cells [9]): 3.5 µM
IC50 (PC-3 cells [10]): 3.1 µM

SMILES: COc1cc(/C=C/C(=O)CC(=O)/C=C/c2ccc(O)c(OC)c2)ccc1O [Curcumin, reference compound]
IC50 (H-1975 cells; Table 10): > 25 µM
IC50 (MDA-MB-231 cells; [11]): 15.7 µM
IC50 (22Rv1 cells [1]; [15]): 18.3 µM
IC50 (PC-3 cells [2]; [13]): 16.8 µM
IC50 (C4-2B cells [3]; [16]): 6.1 µM
IC50 (LNCaP cells [4]; [14]): 8.5 µM
IC50 (MCF-7 cells; Table 10): 13.6 µM

SMILES: CC1=CCCC(C)(C)C1/C=C/C(=O)/C=C/c1ccccc1F (racemic) [Compound B19]
IC50 (LNCaP cells [6]): 1.6 µM
IC50 (C4-2B cells [7]): 6 µM
IC50 (MDA PCa 2b cells [8]): 8.3 µM
IC50 (22Rv1 cells [9]): 9.4 µM
IC50 (PC-3 cells [10]): 4.8 µM

SMILES: CC1=CCCC(C)(C)C1/C=C/C(=O)/C=C/c1cccc([N+](=O)[O-])c1 (racemic) [Compound B21]
IC50 (LNCaP cells [6]): 3.3 µM
IC50 (C4-2B cells [7]): 4 µM
IC50 (MDA PCa 2b cells [8]): 5.9 µM
IC50 (22Rv1 cells [9]): 4.7 µM
IC50 (PC-3 cells [10]): 2.9 µM

SMILES: CC1=CCCC(C)(C)C1/C=C/C(=O)/C=C/c1cccc(C(F)(F)F)c1 (centres unmarked) [Compound B17, (1E,4E)-1-(3-(trifluoromethyl)phenyl)-5-(2,6,6-trimethylcyclohex-2-enyl)penta-1,4-dien-3-one]
IC50 (LNCaP cells [6]; human, 72 h): 1 µM
IC50 (C4-2B cells [7]; human, 72 h): 4.4 µM
IC50 (MDA PCa 2b cells [8]; human, 72 h): 4.4 µM
IC50 (22Rv1 cells [9]; human, 72 h): 2.9 µM
IC50 (PC-3 cells [10]; human, 72 h): 5.2 µM

SMILES: CC1=CCCC(C)(C)C1/C=C/C(=O)/C=C/c1ccc(C(F)(F)F)cc1 (racemic) [Compound B18]
IC50 (LNCaP cells [6]): 4.7 µM
IC50 (C4-2B cells [7]): 5.2 µM
IC50 (MDA PCa 2b cells [8]): 7 µM
IC50 (22Rv1 cells [9]): 3.3 µM
IC50 (PC-3 cells [10]): 7.9 µM

SMILES: CC1=C(/C=C/C(=O)/C=C/c2ccc(F)c(C(F)(F)F)c2)C(C)(C)CCC1O (racemic) [Compound B32]
IC50 (LNCaP cells [6]): 2.2 µM
IC50 (C4-2B cells [7]): 7.3 µM
IC50 (MDA PCa 2b cells [8]): 10 µM
IC50 (22Rv1 cells [9]): 3.2 µM
IC50 (PC-3 cells [10]): 7.3 µM

Second part, led by results:

IC50 (LNCaP cells [6]; human, 72 h): 16.6 µM
IC50 (C4-2B cells [7]; human, 72 h): 14.4 µM
SMILES: CC(=O)N1N=C(/C=C/C2C(C)=CCCC2(C)C)CC1c1ccc(C(F)(F)F)cc1 (centres unmarked) [Compound C7]
IC50 (H-1975 cells; Table 11): 17.9 µM
IC50 (MDA-MB-231 cells; [22]): 20 µM
IC50 (MCF-7 cells; Table 11): 20.8 µM

IC50 (LNCaP cells [6]; human, 72 h): 10.9 µM
IC50 (C4-2B cells [7]; human, 72 h): 5.7 µM
SMILES: CC1=CCCC(C)(C)C1/C=C/C1=NNC(c2cccc(C(F)(F)F)c2)C1 (centres unmarked) [Compound C5]
IC50 (H-1975 cells; Table 11): 19.2 µM
IC50 (MDA-MB-231 cells; [22]): 15.8 µM
IC50 (MCF-7 cells; Table 11): 17.6 µM

IC50 (LNCaP cells [6]; human, 72 h): 17.1 µM
SMILES: CC(=O)N1N=C(/C=C/C2C(C)=CCCC2(C)C)CC1c1ccccc1F (centres unmarked) [Compound C1]
IC50 (H-1975 cells; Table 11): 23.7 µM
IC50 (MDA-MB-231 cells; [22]): 20.4 µM
IC50 (MCF-7 cells; Table 11): 25.3 µM

IC50 (LNCaP cells [6]; human, 72 h): 16.8 µM
IC50 (C4-2B cells [7]; human, 72 h): 12.2 µM
IC50 (PC-3 cells [10]; human, 72 h): 15.9 µM
SMILES: CC(=O)N1N=C(/C=C/C2C(C)=CCCC2(C)C)CC1c1cccc(C(F)(F)F)c1 (centres unmarked) [Compound C2]
IC50 (H-1975 cells; Table 11): 14.8 µM
IC50 (MDA-MB-231 cells; [22]): 14.4 µM
IC50 (MCF-7 cells; Table 11): 23.1 µM

IC50 (LNCaP cells [6]; human, 72 h): 24.7 µM
IC50 (C4-2B cells [7]; human, 72 h): 22.1 µM
IC50 (PC-3 cells [10]; human, 72 h): 25.5 µM
SMILES: COc1ccc(C2CC(/C=C/C3=C(C)C(O)CCC3(C)C)=NN2C(C)=O)cc1OC (centres unmarked) [Compound C3]
IC50 (H-1975 cells; Table 11): > 25 µM
IC50 (MDA-MB-231 cells; [22]): > 25 µM
IC50 (MCF-7 cells; Table 11): > 25 µM

IC50 (LNCaP cells [6]; human, 72 h): 35.4 µM
IC50 (C4-2B cells [7]; human, 72 h): 17.8 µM
IC50 (PC-3 cells [10]; human, 72 h): 47 µM
SMILES: CC(=O)N1N=C(/C=C/C2=C(C)C(O)CCC2(C)C)CC1c1cccc(C(F)(F)F)c1 (centres unmarked) [Compound C4]
IC50 (H-1975 cells; Table 11): > 25 µM
IC50 (MDA-MB-231 cells; [22]): > 25 µM
IC50 (MCF-7 cells; Table 11): > 25 µM

IC50 (LNCaP cells [6]; human, 72 h): 18.2 µM
IC50 (C4-2B cells [7]; human, 72 h): 16.6 µM
SMILES: CC(=O)N1N=C(/C=C/C2C(C)=CCCC2(C)C)CC1c1ccccc1C(F)(F)F (centres unmarked) [Compound C6]
IC50 (H-1975 cells; Table 11): 18.3 µM
IC50 (MDA-MB-231 cells; [22]): 15.4 µM
IC50 (MCF-7 cells; Table 11): 18.3 µM
